Assay [1] concerns the target Death-associated protein kinase 2 (Homo sapiens) (UniProt Q9UIK4). Nature of the assay: Residual activity of DAPK2 at 1 uM by microplate scintillation counting.
Assay [2] addresses T1, Inhibitor of nuclear factor kappa-B kinase subunit beta (Homo sapiens) (UniProt O14920).
T1 sequence (whole entry): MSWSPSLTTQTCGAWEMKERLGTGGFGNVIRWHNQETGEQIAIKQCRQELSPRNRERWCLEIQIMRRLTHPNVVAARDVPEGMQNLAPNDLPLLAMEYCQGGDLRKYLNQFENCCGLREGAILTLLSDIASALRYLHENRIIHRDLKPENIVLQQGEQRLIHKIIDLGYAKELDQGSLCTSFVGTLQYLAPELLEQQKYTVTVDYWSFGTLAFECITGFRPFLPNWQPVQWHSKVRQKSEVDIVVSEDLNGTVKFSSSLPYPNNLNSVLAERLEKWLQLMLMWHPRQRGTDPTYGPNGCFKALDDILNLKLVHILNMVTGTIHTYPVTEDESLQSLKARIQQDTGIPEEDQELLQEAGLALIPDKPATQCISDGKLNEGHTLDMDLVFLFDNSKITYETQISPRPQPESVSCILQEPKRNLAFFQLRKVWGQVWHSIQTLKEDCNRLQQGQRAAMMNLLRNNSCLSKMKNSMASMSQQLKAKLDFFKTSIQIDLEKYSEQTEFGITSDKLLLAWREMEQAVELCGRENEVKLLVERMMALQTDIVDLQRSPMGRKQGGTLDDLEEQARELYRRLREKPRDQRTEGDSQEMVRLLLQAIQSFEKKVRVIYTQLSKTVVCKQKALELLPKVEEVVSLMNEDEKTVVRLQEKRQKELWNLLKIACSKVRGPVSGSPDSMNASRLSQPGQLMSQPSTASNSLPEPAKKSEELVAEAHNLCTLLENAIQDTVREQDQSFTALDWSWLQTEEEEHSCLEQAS
Description: Residual activity of IKK-beta at 0.1 uM by microplate scintillation counting.

Assay [3] has as its target CDK1/Cyclin A (Homo sapiens) (UniProt P06493+P20248). Nature of the assay: Residual activity of CDK1/Cyclin A at 1 uM by microplate scintillation counting. Type of assay: protein-complex assay.
Assay [4] has as its target CDK9/cyclin T1 (Homo sapiens) (UniProt O60563+P50750). Description: Residual activity of CDK9/Cyclin T at 10 uM by microplate scintillation counting. It counts as protein-complex assay.
Assay [5] has as its target Ephrin type-A receptor 4 (Homo sapiens) (UniProt P54764). Description: Residual activity of EPHA4 at 10 uM by microplate scintillation counting.
The target in assay [6] is Calcium/calmodulin-dependent protein kinase type 1D (Homo sapiens) (UniProt Q8IU85). Description: Residual activity of CAMK1D at 1 uM by microplate scintillation counting.
Calcium/calmodulin-dependent protein kinase type 1D (Homo sapiens), sequence (Q8IU85 whole entry, looked up): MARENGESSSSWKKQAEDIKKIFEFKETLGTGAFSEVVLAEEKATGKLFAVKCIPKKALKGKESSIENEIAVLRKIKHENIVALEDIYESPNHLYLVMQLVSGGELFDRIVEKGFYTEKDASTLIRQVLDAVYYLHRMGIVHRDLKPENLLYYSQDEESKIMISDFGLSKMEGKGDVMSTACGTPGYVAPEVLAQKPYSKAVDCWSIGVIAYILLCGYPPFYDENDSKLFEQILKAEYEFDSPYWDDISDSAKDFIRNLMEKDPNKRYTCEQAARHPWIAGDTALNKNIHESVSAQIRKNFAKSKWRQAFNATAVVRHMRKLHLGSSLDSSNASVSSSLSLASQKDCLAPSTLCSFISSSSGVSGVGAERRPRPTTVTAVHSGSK
Assay [7] addresses T2, Eukaryotic elongation factor 2 kinase (Homo sapiens) (UniProt O00418).
T2 sequence (whole entry): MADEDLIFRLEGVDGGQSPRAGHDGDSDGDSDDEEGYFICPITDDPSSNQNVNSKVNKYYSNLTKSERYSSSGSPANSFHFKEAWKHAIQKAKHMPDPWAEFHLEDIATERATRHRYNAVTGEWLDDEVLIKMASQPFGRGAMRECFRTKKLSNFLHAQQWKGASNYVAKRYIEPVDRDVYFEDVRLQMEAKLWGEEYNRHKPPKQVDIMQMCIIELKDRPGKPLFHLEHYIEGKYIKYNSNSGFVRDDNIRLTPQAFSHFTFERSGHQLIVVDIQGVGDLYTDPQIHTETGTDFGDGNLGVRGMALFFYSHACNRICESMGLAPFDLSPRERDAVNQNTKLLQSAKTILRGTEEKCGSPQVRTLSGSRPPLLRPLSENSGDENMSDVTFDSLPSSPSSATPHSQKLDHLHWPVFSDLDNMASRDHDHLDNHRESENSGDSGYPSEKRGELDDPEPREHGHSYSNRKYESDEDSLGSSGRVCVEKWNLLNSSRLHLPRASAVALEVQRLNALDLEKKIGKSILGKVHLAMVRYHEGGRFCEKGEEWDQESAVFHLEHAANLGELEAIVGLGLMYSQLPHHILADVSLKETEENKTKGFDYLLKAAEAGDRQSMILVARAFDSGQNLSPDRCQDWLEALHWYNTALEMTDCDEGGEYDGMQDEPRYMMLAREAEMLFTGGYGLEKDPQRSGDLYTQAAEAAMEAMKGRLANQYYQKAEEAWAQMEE
Nature of the assay: Residual activity of EEF2K at 0.1 uM by microplate scintillation counting.

For assay [8], the target named is T3, TGF-beta receptor type-1 (Homo sapiens) (UniProt P36897).
T3 sequence (whole entry): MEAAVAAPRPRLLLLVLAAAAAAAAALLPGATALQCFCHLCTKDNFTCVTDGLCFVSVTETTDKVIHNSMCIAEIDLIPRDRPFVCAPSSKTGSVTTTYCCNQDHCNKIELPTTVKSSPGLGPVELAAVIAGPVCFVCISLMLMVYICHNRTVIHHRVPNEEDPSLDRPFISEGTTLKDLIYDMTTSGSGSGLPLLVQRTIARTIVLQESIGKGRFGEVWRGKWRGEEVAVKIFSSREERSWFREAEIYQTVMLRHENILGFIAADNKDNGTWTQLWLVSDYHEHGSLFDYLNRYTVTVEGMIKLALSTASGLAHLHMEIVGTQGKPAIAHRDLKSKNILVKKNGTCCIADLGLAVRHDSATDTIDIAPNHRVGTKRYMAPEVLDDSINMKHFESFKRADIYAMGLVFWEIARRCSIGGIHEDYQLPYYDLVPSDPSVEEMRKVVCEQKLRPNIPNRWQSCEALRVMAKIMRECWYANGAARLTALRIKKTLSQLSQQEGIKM
Nature of the assay: Residual activity of TGFB-R1 at 1 uM by microplate scintillation counting.

Assay [9] concerns the target T4, Lymphokine-activated killer T-cell-originated protein kinase (Homo sapiens) (UniProt Q96KB5).
T4 sequence (whole entry): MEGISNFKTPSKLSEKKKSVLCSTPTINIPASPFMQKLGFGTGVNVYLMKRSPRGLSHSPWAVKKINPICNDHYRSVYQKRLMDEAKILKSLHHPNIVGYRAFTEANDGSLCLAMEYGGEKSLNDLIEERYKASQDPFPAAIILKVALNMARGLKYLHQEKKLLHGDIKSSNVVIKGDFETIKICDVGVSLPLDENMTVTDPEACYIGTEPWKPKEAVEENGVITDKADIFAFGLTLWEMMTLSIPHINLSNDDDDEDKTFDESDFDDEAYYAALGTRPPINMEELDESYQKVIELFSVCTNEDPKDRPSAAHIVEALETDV
Description: Residual activity of PBK at 1 uM by microplate scintillation counting.

Assay [10] has as its target Tyrosine-protein kinase ABL2 (Homo sapiens) (UniProt P42684). Description: Residual activity of ABL2 at 10 uM by microplate scintillation counting.
The target of assay [11] is Mitogen-activated protein kinase 1 (Homo sapiens) (UniProt P28482). Description: Residual activity of ERK2 at 0.1 uM by microplate scintillation counting.
Mitogen-activated protein kinase 1 (Homo sapiens), sequence (P28482 whole entry): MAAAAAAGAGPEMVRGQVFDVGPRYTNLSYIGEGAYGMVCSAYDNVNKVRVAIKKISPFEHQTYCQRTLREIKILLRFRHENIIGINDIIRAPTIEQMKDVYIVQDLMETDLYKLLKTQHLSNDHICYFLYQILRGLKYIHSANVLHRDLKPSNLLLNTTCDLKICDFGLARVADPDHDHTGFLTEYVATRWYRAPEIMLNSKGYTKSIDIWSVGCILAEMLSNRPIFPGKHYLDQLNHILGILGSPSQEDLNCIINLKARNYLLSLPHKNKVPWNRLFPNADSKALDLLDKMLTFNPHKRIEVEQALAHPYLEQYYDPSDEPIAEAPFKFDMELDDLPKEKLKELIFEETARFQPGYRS

Death-associated protein kinase 2 (Homo sapiens), sequence (Q9UIK4 whole entry, looked up): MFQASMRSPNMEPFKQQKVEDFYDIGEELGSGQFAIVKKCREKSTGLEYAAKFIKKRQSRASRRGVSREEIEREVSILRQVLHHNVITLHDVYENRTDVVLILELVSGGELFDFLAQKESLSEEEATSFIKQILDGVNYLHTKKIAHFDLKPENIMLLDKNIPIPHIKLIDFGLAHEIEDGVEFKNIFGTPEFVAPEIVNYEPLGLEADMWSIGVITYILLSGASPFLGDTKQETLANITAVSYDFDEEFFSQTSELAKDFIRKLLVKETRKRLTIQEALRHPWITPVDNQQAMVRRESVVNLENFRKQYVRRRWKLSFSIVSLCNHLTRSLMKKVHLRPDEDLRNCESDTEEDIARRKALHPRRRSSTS
CDK1/Cyclin A (Homo sapiens), sequence (P06493 whole entry, looked up): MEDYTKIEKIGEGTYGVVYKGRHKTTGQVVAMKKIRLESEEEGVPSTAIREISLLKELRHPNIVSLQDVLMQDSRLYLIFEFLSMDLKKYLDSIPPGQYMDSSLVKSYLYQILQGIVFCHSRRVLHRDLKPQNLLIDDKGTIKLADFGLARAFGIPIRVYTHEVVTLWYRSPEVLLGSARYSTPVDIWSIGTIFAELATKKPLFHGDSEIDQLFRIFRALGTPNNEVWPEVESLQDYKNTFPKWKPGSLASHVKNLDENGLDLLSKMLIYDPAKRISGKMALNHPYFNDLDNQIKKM
CDK1/Cyclin A (Homo sapiens), sequence (P20248 whole entry, looked up): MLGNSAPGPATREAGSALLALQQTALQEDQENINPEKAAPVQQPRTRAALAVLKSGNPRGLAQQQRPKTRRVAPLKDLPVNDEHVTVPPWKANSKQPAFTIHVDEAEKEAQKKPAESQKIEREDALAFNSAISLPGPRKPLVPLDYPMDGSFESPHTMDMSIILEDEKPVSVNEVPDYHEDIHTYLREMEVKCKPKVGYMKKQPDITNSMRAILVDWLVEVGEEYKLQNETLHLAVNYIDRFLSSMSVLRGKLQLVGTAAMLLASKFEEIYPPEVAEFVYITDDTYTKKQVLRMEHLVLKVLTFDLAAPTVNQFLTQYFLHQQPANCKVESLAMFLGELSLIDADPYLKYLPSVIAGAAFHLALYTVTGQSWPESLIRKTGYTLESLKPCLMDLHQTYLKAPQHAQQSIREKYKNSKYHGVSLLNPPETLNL
Tyrosine-protein kinase ABL2 (Homo sapiens), sequence (P42684 whole entry): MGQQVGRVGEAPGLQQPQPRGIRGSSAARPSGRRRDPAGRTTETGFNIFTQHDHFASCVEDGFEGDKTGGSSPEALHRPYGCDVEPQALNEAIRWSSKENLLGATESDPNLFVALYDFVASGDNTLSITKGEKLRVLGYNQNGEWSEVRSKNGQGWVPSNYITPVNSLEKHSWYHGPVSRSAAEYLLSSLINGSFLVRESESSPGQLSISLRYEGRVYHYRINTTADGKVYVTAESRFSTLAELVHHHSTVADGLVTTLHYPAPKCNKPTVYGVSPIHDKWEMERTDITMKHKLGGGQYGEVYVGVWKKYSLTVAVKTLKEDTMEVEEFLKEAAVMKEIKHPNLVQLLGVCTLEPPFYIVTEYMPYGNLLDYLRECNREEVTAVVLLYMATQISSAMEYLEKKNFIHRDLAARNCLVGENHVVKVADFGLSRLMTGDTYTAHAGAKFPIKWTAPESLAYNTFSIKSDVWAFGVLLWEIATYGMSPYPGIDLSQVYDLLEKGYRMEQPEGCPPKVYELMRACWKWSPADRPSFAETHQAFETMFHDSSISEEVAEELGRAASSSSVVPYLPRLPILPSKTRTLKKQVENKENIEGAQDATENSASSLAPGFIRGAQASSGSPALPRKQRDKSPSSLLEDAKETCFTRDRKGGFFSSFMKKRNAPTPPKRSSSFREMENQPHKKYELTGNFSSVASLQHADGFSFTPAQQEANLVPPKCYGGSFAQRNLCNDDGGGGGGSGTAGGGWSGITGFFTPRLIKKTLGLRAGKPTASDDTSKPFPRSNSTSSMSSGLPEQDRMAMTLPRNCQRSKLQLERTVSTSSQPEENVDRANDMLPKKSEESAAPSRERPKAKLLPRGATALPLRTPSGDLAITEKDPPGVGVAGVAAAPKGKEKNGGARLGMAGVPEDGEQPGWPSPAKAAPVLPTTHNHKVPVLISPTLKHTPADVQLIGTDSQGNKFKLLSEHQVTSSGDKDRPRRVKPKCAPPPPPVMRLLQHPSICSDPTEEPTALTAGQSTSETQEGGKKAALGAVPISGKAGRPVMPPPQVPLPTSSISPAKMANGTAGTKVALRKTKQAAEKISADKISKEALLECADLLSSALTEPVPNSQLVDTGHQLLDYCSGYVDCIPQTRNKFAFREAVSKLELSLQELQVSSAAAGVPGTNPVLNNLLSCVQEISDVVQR
Ephrin type-A receptor 4 (Homo sapiens), sequence (P54764 whole entry): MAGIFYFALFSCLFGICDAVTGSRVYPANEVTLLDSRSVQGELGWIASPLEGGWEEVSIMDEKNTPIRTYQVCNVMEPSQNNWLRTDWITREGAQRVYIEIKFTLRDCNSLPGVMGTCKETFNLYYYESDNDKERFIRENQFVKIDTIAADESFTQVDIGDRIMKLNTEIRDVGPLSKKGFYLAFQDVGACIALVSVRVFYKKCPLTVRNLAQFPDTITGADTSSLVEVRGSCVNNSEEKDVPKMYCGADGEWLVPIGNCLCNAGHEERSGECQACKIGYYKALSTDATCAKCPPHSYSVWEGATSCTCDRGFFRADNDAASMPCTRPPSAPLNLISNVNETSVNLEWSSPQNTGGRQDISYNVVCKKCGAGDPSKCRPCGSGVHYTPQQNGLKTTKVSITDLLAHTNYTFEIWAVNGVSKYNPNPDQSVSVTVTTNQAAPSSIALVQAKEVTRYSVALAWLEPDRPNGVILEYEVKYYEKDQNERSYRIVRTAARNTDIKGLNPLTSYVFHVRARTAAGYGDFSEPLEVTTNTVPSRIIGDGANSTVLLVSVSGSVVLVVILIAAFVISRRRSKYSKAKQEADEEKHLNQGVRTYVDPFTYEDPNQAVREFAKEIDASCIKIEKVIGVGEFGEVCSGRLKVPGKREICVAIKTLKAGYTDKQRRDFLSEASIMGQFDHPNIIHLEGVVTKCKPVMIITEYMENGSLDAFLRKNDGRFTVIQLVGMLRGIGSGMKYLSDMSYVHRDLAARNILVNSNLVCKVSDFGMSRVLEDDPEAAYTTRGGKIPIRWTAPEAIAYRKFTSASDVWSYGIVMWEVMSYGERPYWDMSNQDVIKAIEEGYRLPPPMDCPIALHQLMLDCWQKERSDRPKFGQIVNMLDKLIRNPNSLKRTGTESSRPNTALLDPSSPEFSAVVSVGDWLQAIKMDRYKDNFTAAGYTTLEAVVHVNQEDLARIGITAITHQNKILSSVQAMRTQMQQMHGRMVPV

Consider `COc1cc2c(Oc3ccc(-c4nc5ccccc5s4)cc3F)ncnc2cc1OCCCN1CCN(C)CC1`, for which the residual activity in assay [1] was determined as 90%; in assay [2] it was 85%; in assay [3], 102%; in [4], 107%; in assay [5], 47%; in assay [6], 91%. For the same compound, the residual activity amounted to 88% in [7]; 107% in assay [8]; 96% in [9]; 93% in [10]; 96% in assay [11].

As to `COc1cc2c(Oc3ccc(-c4nc5ccccc5s4)cc3)ncnc2cc1OCCCN1CCN(C)CC1`, the residual activity in [1] stood at 79%; in assay [2] it was 96%; in [3], 101%; in assay [4] it was 109%; in assay [5], 112%; in [6] it was 87%. Further, the residual activity in [7] was 92%; in assay [8], 103%; in [9], 100%; in [10] it was 170%; in assay [11] it was 85%.

Turning to `COc1cc2c(Oc3ccc(-c4nc5ccccc5s4)cc3)ncnc2cc1OCCCN1CCCC1`, the residual activity in assay [1] was 92%; in [2], 91%; in [3], 111%; in assay [4] it was 107%; in [5] it was 94%; in assay [6], 92%. In addition, the residual activity was determined as 91% in assay [7]; 98% in assay [8]; 103% in [9]; 147% in assay [10]; 78% in [11].
